Columns and labels:
mRNA of COX-2 gene = test: Suppression of COX-2 mRNA expression in gingival epithelial cells stimulated with P. gingivalis vesicles (real-time RT-PCR); assay type: cell-based; conditions: human gingival epithelium-derived immortalized cells stimulated with P. gingivalis-derived vesicles; mRNA measured 24 hours after addition, standardized to GAPDH mRNA
Procedure: The expression levels of mRNA of COX-2 gene were determined.
The P. gingivalis-derived vesicles were prepared as follows: P. gingivalis strain (ATCC 33277) was cultured for 3 days and the cells were removed from the 500 ml culture by centrifugation and filtration. The supernatant was ultracentrifuged at 100,000 G at 4° C. for 1 hour to obtain the desired vesicles. The expression levels of mRNA of COX-2 gene were determined by measuring the amounts of mRNA by real-time RT-PCR 24 hours after addition of each substance. The PCR was performed by using primers specific for the COX-2 gene and amplification was carried out for 45 cycles. The amount of mRNA was standardized to the amount of mRNA of glyceraldehyde-3-phosphate dehydrogenase.
The 80% ethanol fraction obtained in Example 1 was fractionated by reverse-phase HPLC and the resulting fractions corresponding to the respective peaks were collected. As in Example 2, the fractions were incubated with human gingival epithelium-derived immortalized cells stimulated with the vesicles obtained from P. gingivalis (inflammation-inducing agent). The expression levels of mRNA of COX-2 were determined.

cyclooxygenase-1 (COX-1) = cyclooxygenase-1 (COX-1) (Homo sapiens, UniProt P23219); conditions: according to Non-Patent Document 1; cited from earlier work
[1] = as described in Patent Documents 1, 2 and 5; cited from earlier work

Sequence of cyclooxygenase-1 (COX-1) (P23219 24-599, species assumed): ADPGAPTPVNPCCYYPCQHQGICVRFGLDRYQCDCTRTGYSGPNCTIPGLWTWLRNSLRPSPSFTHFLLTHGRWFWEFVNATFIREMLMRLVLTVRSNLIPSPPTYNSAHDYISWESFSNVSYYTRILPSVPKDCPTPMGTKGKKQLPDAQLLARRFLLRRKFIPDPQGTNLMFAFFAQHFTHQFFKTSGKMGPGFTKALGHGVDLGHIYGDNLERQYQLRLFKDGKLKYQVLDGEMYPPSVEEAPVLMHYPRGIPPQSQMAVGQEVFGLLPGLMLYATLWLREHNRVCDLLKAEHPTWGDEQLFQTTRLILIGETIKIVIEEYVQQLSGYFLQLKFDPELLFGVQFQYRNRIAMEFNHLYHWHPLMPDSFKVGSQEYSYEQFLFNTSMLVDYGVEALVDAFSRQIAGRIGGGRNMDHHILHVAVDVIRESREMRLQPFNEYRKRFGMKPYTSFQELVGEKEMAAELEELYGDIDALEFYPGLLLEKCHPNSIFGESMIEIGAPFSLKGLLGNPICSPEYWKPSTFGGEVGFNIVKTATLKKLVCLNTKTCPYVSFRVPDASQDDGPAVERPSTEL

| SMILES | suppression of the expression of mRNA of COX-2 gene (mRNA of COX-2 gene) | inhibition of cyclooxygenase-1 (COX-1) (cyclooxygenase-1 (COX-1)) | anti-inflammatory activity [1] |
| --- | --- | --- | --- |
| CC(C)C(=O)c1c(O)cc(O)cc1O[C@@H]1O[C@H](CO)[C@@H](O)[C@H](O)[C@H]1O [MPPG, 2-[(2-methylpropanyl)-phloroglucinol]-1-O-β-D-glucopyranoside] | activity | inhibits cyclooxygenase-1 (COX-1) |  |
| O=c1c(O[C@@H]2O[C@H](CO)[C@@H](O)[C@H](O)[C@H]2O)c(-c2ccc(O)cc2)oc2cc(O)cc(O)c12 [astragalin, kaempferol-3-O-β-D-glucopyranoside] | activity |  | exhibit anti-inflammatory activity |
| O=c1c(O[C@@H]2O[C@H](CO)[C@@H](O)[C@H](O)[C@H]2O)c(-c2ccc(O)c(O)c2)oc2cc(O)cc(O)c12 [isoquercitrin, quercetin-3-O-β-D-glucopyranoside] | activity |  | exhibit anti-inflammatory activity |
